Converted amounts (≈) assume the structure as drawn.
Assays:
Type in all cases: cell-based
E. coli TEM-1 = conditions: TEM-1, class A, inhibitor constant 4 μg/mL
E. coli SHV-3 = test: Synergy MIC, inhibitor at 4 μg/mL (Example 4); conditions: SHV-3, class A, inhibitor constant 4 μg/mL
Escherichia coli OXA-3 = test: MIC, characterised β-lactamase producing strain (Example 5, Tables 5-7); conditions: Escherichia coli OXA-3
Protocol: (§1) The MIC experiments were performed in duplicate in 96-well microtiter plates using CAMHB. Serial twofold dilutions of each antibiotic either alone or in combination with constant concentration ratio of a β-lactamase inhibitor (2:1) were prepared in CAMHB. The bacterial suspension with final inoculum 10^5 CFU/mL was transferred to the test medium containing the antibacterial substances. In each well of a 96-well microtiter plate was combined 50 μL of bacterial inoculum, 50 μL of antibiotic dilutions (or media for determination of the MIC of the antibiotic in the absence of test compound). Each plate included 4 wells with no bacterial inoculum (negative control) and 4 wells with no test compound and no antibiotic (positive control). The plates were incubated at 35° C. for 24 h. Purity check and colony counts on each inoculum suspension was performed to ensure that the final inoculum concentration routinely obtained closely approximates 5×10^5 CFU/mL. In addition the assay is routinely monitored by testing standard antibiotics and ensuring that MIC values are within the recommended ranges for the respective strains.
(§2) This test permits comparisons to be made between bacterial growth in the presence of antibiotic alone and bacterial growth in the presence of both an antibiotic and a novel (test) compound.

[1] = tested on: Klebsiella oxytoca K1 highperproduced; test: as above
Protocol: as §1, §2

Escherichia coli TEM-35 = test: as above; conditions: Escherichia coli TEM-35
Protocol: as §1, §2

Escherichia coli TEM-3 = test: as above; conditions: Escherichia coli TEM-3
Protocol: as §1, §2

Escherichia coli HMS-1 = test: as above; conditions: Escherichia coli HMS-1
Protocol: as §1, §2

Escherichia coli SHV-3 = test: as above; conditions: Escherichia coli SHV-3
Protocol: as §1, §2

[2] = tested on: Pseudomonas aeruginosa CARB-3; test: as above; conditions: Pseudomonas aeruginosa CARB-3
Protocol: as §1, §2

E. coli TEM-2 = conditions: TEM-2, class A, inhibitor constant 4 μg/mL
Escherichia coli TEM-5 = test: MIC, characterised β-lactamase producing strain (Example 5, Tables 5-7); conditions: Escherichia coli TEM-5
Protocol: as §1, with “Serial twofold dilutions of each antibiotic either alone or in combination with constant concentration ratio of a β-lactamase inhibitor (2:1) were prepared in CAMHB.” left out
as §2

Escherichia coli TEM-20 = test: as above; conditions: Escherichia coli TEM-20
Protocol: as §1, with “Serial twofold dilutions of each antibiotic either alone or in combination with constant concentration ratio of a β-lactamase inhibitor (2:1) were prepared in CAMHB.” left out
as §2

Escherichia coli TEM-6 = test: as above; conditions: Escherichia coli TEM-6
Protocol: as §1, with “Serial twofold dilutions of each antibiotic either alone or in combination with constant concentration ratio of a β-lactamase inhibitor (2:1) were prepared in CAMHB.” left out
as §2

Escherichia coli TEM-50 = test: as above; conditions: Escherichia coli TEM-50
Protocol: as §1, with “Serial twofold dilutions of each antibiotic either alone or in combination with constant concentration ratio of a β-lactamase inhibitor (2:1) were prepared in CAMHB.” left out
as §2

[3] = tested on: Klebsiella pneumoniae TEM-1, SHV; test: as above
Protocol: as §1, with “Serial twofold dilutions of each antibiotic either alone or in combination with constant concentration ratio of a β-lactamase inhibitor (2:1) were prepared in CAMHB.” left out
as §2

Escherichia coli SHV-2 = test: as above; conditions: Escherichia coli SHV-2
Protocol: as §1, with “Serial twofold dilutions of each antibiotic either alone or in combination with constant concentration ratio of a β-lactamase inhibitor (2:1) were prepared in CAMHB.” left out
as §2

[4] = tested on: Pseudomonas aeruginosa LCR-1; test: as above; conditions: Pseudomonas aeruginosa LCR-1
Protocol: as §1, with “Serial twofold dilutions of each antibiotic either alone or in combination with constant concentration ratio of a β-lactamase inhibitor (2:1) were prepared in CAMHB.” left out
as §2

Escherichia coli TEM-7 = test: as above; conditions: Escherichia coli TEM-7
Protocol: as §1, with “Serial twofold dilutions of each antibiotic either alone or in combination with constant concentration ratio of a β-lactamase inhibitor (2:1) were prepared in CAMHB.” left out
as §2

[5] = tested on: Pseudomonas aeruginosa PSE-1; test: as above; conditions: Pseudomonas aeruginosa PSE-1
Protocol: as §1, with “Serial twofold dilutions of each antibiotic either alone or in combination with constant concentration ratio of a β-lactamase inhibitor (2:1) were prepared in CAMHB.” left out
as §2

[6] = tested on: Klebsiella pneumoniae LAT-1; test: as above; conditions: Klebsiella pneumoniae LAT-1
Protocol: as §1, with “Serial twofold dilutions of each antibiotic either alone or in combination with constant concentration ratio of a β-lactamase inhibitor (2:1) were prepared in CAMHB.” left out
as §2

Proteus mirabilis TEM-52 = test: as above; conditions: Proteus mirabilis TEM-52
Protocol: as §1, with “Serial twofold dilutions of each antibiotic either alone or in combination with constant concentration ratio of a β-lactamase inhibitor (2:1) were prepared in CAMHB.” left out
as §2

[7] = tested on: Pseudomonas aeruginosa OXA-10; test: as above; conditions: Pseudomonas aeruginosa OXA-10
Protocol: as §1, with “Serial twofold dilutions of each antibiotic either alone or in combination with constant concentration ratio of a β-lactamase inhibitor (2:1) were prepared in CAMHB.” left out
as §2

[8] = tested on: Klebsiella pneumoniae TEM-31; test: as above; conditions: Klebsiella pneumoniae TEM-31
Protocol: as §1, with “Serial twofold dilutions of each antibiotic either alone or in combination with constant concentration ratio of a β-lactamase inhibitor (2:1) were prepared in CAMHB.” left out
as §2

K. pneumoniae SHV-18 = test: Synergy MIC, inhibitor at 4 μg/mL (Example 4); conditions: SHV-18, class A, inhibitor constant 4 μg/mL
[9] = Table 6, LK-157 at constant 4 μg/mL in combination
[10] = Table 7, combination at constant concentration ratio (2:1)

CO/N=C(\C(=O)N[C@@H]1C(=O)N2C(C(=O)O)=C(COC(C)=O)CS[C@H]12)c1csc(N)n1 [cefotaxime]
MIC (E. coli TEM-1): > 25.6 µg/mL | MIC (E. coli SHV-3): 3.2 µg/mL | MIC (Escherichia coli OXA-3; [9]): 0.063 µg/mL | MIC ([1]; Table 6, Klebsiella oxytoca K1 highperproduced, first listed strain, LK-157 at constant 4 μg/mL in combination): 1 µg/mL | MIC ([1]; Table 6, Klebsiella oxytoca K1 highperproduced, second listed strain, LK-157 at constant 4 μg/mL in combination): 1 µg/mL | MIC (Escherichia coli TEM-35; [9]): 0.031 µg/mL | MIC (Escherichia coli TEM-3; [9]): 16 µg/mL | MIC (Escherichia coli HMS-1; [9]): 0.063 µg/mL | MIC (Escherichia coli SHV-3; [9]): 32 µg/mL | MIC [2, 9]: 16 µg/mL | MIC (E. coli TEM-2): 0.1 µg/mL (≈ 0.22 µM) | MIC (Escherichia coli TEM-5; [9]): 0.063 µg/mL | MIC (Escherichia coli TEM-20; [9]): 2 µg/mL | MIC (Escherichia coli TEM-6; [9]): 0.5 µg/mL | MIC (Escherichia coli TEM-50; [9]): 8 µg/mL | MIC [3, 9]: 4 µg/mL | MIC (Escherichia coli SHV-2; [9]): 4 µg/mL | MIC [4, 9]: 64 µg/mL | MIC (Escherichia coli TEM-7; [9]): 0.25 µg/mL | MIC [5, 9]: 16 µg/mL | MIC [6, 9]: 4 µg/mL | MIC (Proteus mirabilis TEM-52; [9]): 16 µg/mL | MIC [7, 9]: 64 µg/mL | MIC [8, 9]: 0.063 µg/mL | MIC (K. pneumoniae SHV-18): 3.2 µg/mL

CC(C)(O/N=C(\C(=O)N[C@@H]1C(=O)N2C(C(=O)[O-])=C(C[n+]3ccccc3)CS[C@H]12)c1csc(N)n1)C(=O)O [ceftazidime]
MIC (E. coli TEM-1): 3.2 µg/mL (≈ 5.85 µM) | MIC (E. coli SHV-3): 0.8 µg/mL | MIC (Escherichia coli OXA-3; [10]): 0.5 µg/mL | MIC ([1]; Table 7, Klebsiella oxytoca K1 hyperproduced, first listed strain, combination at constant concentration ratio (2:1)): 1 µg/mL | MIC ([1]; Table 7, Klebsiella oxytoca K1 hyperproduced, second listed strain, combination at constant concentration ratio (2:1)): 0.5 µg/mL | MIC (Escherichia coli TEM-35; [10]): 0.25 µg/mL | MIC (Escherichia coli TEM-3; [10]): 32 µg/mL | MIC (Escherichia coli HMS-1; [10]): 0.25 µg/mL | MIC (Escherichia coli SHV-3; [10]): 2 µg/mL | MIC [2, 10]: 2 µg/mL | MIC (E. coli TEM-2): 1.6 µg/mL (≈ 2.93 µM) | MIC (Escherichia coli TEM-5; [10]): 4 µg/mL | MIC (Escherichia coli TEM-20; [10]): 2 µg/mL | MIC (Escherichia coli TEM-6; [10]): ≧128 μg/mL | MIC (Escherichia coli TEM-50; [10]): 8 µg/mL | MIC [3, 10]: 8 µg/mL | MIC (Escherichia coli SHV-2; [10]): 2 µg/mL | MIC [4, 10]: 4 µg/mL | MIC (Escherichia coli TEM-7; [10]): 32 µg/mL | MIC [5, 10]: 2 µg/mL | MIC [6, 10]: 8 µg/mL | MIC (Proteus mirabilis TEM-52; [10]): 4 µg/mL | MIC [7, 10]: 4 µg/mL | MIC [8, 10]: 0.25 µg/mL | MIC (K. pneumoniae SHV-18): 25.6 µg/mL
